{"source": "patent US20250204530A1", "about": "“USE OF CAROTENIOD COMPOSITION FOR NEMATODE CONTROL” (IDAI NATURE, S.L., priority 2022, published 2025)", "system": "Phytopathogenic nematodes (Helicotylenchus and Hemicycliophora)", "assay": "NEPOT test in soil pots: full formulation, co-formulants, lutein alone (Example 14)", "type": "in vivo", "conditions": "20 mL/pot, 7 DAA; for number of nematodes in soil (living individuals, Baermann): 320 individuals per pot", "source_text": "The purpose of this test was to evaluate the efficacy of the products coded as P1, P2 and P3 of the company IDAI NATURE against a mixture of phytopathogenic nematodes by the company NEVAL.\nThis study evaluates the behaviour under controlled conditions, in soil (NEPOT test)* of a battery of products against a mixture of phytopathogenic nematodes.\nThis study consists of 3 compositions, each of them at 2 doses and a control without treatment.\nThe juveniles were obtained from a freshly extracted sample of roots of sports lawns.\nIt is based on pots or glasses with the right amount of 100 mL for a quantification per sample.\n• Product 1: N-09-04—Full formulation • Product 2: Co-formulant package (without A.I.)—(sunflower oil+tensioactives polysorbates 20, 80 and 85+butyl glycol+TBHQ+water) • Product 3: The Active ingredient alone—Lutein\nThe trial was carried out laboratory in Xilxes—Castelon—Spain—under controlled conditions and plant pathogenic nematodes in soil in a volume of 100 mL per pot. The three replicates per treatment were worked in 100 mL pots of soil with 320 plant pathogenic nematodes in each pot. • Pest: Phytopathogenic nematodes (Helicotylenchus and Hemicycliophora) • Innoculum quantity: 320 individuals per experimental unit • Substract: Sandy soil • Application: Manual—20 mL/pot • Design: Randomized Complete Block (RCB)—3 replicates per treatment • Equipment: Manual application: with micropipette and MAT 09.1 balance • Application code: A=28/06/2021—preparation+application A • Extraction=05/07/2021 (7 DAA according Baermann) • Quantification=06/07/2021\nProducts 1 (N-09-04 full formulation) and product 2 (the full formulation without the Lutein) were mixed with water, while product 3 (Lutein alone—active ingredient), difficult miscibility was deposited on the ground, adding the water later and mixing everything in the soil with a teaspoon shaking for 30 seconds each replica.\nAfter the study carried out under laboratory conditions, each of the soil samples was extracted using the Baermann funnel procedure for 24 hours and then quantified under a biological microscope.\nThe Baermann procedure has the particular option of extracting only those individuals that have mobility, that is, that are alive, so the result is extrapolated to living individuals.", "data": [{"smiles": "CC1=C[C@H](O)CC(C)(C)[C@H]1/C=C/C(C)=C/C=C/C(C)=C/C=C/C=C(C)/C=C/C=C(C)/C=C/C1=C(C)C[C@@H](O)CC1(C)C", "note": "[Product 3, Lutein]", "values": [{"measurement": "efficacy / control (in brackets)", "setting": "0.375 mL/L", "result": 78.4, "unit": "%"}, {"measurement": "number of nematodes in soil (living individuals, Baermann)", "setting": "0.375 mL/L", "result": 68.0}, {"measurement": "efficacy / control (in brackets)", "setting": "0.563 ml/L", "result": 77.5, "unit": "%"}, {"measurement": "number of nematodes in soil (living individuals, Baermann)", "setting": "0.563 ml/L", "result": 71.0}, {"measurement": "efficacy / control (in brackets)", "setting": "5 ml/L", "result": 4.2, "unit": "%"}, {"measurement": "efficacy / control (in brackets)", "setting": "7.5 ml/L", "result": 40.8, "unit": "%"}]}]}
